Measurements taken from publication PMC9007951, “Systematically evaluating DOTATATE and FDG as PET immuno-imaging tracers of cardiovascular inflammation” (Scientific Reports, 2022).

Columns and labels:
[1] = Ex vivo autoradiography of heart and aorta; format: in vivo, mice; conditions: for ratio between the signal in infarcted and remote myocardium: MI mice, N = 4 per group
Procedure: Tissues (heart and aorta) were placed in a film cassette against a phosphorimaging plate (BASMS-2325, Fujifilm) at − 20 °C to determine the regional radioactivity distribution. Exposure time was optimized to dose, tracer, and tissue uptake differences. Tissues from the heart of [^18F]F-FDG injected animals were exposed for 5 min, [^18F]F-FDG infused aortas were exposed for 30 min and tissues from animals in the [^64Cu]Cu-DOTATATE group were exposed for 60 min. The plates were read at a pixel resolution of 25 μm with a Typhoon 7000IP plate reader (GE Healthcare, Pittsburgh, PA). Images were analyzed using ImageJ software v1.52 (Madison, WI).

[2] = system: atherosclerotic rabbits; test: In vivo PET/MR imaging of aortic inflammation in rabbits; parameters: species or system New Zealand White rabbits; conditions: for SUVmax abdominal aorta: PET/MRI, median
Text: For the rabbit studies, 3 months old male New Zealand White (NZW) rabbits (N = 47) were purchased from Charles River Laboratories (Wilmington, MA). Randomly assigned control rabbits (N = 11) were kept on chow diet and imaged with PET/MR. Among these some animals were euthanized for biodistribution assays (N = 6) or used for time-activity characterization of aorta signal (N = 3). For the atherosclerosis model, remaining rabbits (N = 36) were placed on Western diet (initial 8 weeks on regular chow enriched with 0.3% cholesterol and 4.7% coconut oil, and the remaining time period on 0.15% enriched cholesterol diet from Research diets, Inc. Brunswick, NJ). In order to induce atherosclerotic lesions, these rabbits were subjected to two endothelial denudations of the aorta through the right and left femoral artery at 2 and 6 weeks after diet initiation, respectively, as described previously. Briefly, femoral artery angioplasty was performed under fluoroscopic guidance using a 4F-Fogarty embolectomy catheter. Once catheter is inserted, catheter is positioned in the thoracic descending aorta region. The balloon was then inflated to 2 atm. Catheter is then pulled back over the entire length of the aorta down to the iliac bifurcation, and the pullback procedure is repeated for two additional times. Catheter is then removed, and femoral artery is ligated. Rabbits with atherosclerosis were imaged 4 months after diet initiation (N = 36). Among these animals some were euthanized for ex vivo biodistribution analyses (N = 9), used for time-activity characterization of aorta signal (N = 3) or near infra-red imaging ([…]). The remaining atherosclerotic rabbits were fed a Western diet for an additional 3 months (N = 9) to advance atherosclerosis. At the end of the 3-month period, these rabbits were imaged and euthanized.
In vivo imaging in rabbits was performed on a 3 Tesla Biograph mMR (Siemens, Erlangen, Germany) Positron Emission Tomography/Magnetic Resonance Imaging (PET/MRI) clinical scanner. To establish the optimal imaging time-point for [^68Ga]Ga-DOTATATE aortic imaging in this animal model, 5 rabbits underwent dynamic PET imaging for 3 h immediately after injection of approximately 190 MBq of the tracer. Rabbits where injected intravenously via the ear vein with approximately 190 MBq of either [^18F]F- FDG or [^68Ga]Ga-DOTATATE. Rabbits undergoing [^18F]F-FDG scans were fasted for 3–4 h before injection to avoid tracer uptake in the bowels, as previously validated. […]
Using OsiriX v5.6 software (OsiriX Foundation, Geneva, Switzerland), regions of interest (ROIs) were drawn to determine organ radioactivity concentration. […]

[3] = [^64Cu]Cu-DOTATATE distribution in blood fractions (plasma vs cells); format: in vivo, mice; conditions: 120 min after radiotracer injection, mean ± SEM, N = 5
Procedure: Wild-type and atherosclerotic animals were injected with approximately 1.85 MBq of [^64Cu]Cu-DOTATATE and euthanized at either 1, 5, 15, 30, 60 or 120 min after injection (Supplementary Fig. S1A) to evaluate the tracer’s biodistribution. After euthanasia, an insulin syringe was used to collect blood samples from the right ventricle. Blood samples were used for the establishment of pharmacokinetics profile. Mice were then perfused with 20 mL of phosphate-buffered saline (PBS) and tissues of interest (heart, aorta, bone marrow, spleen, liver, stomach, bladder, kidneys, intestines, lungs, adrenal gland, muscles and pancreas) were harvested. Tissues were blotted for gamma counting on a Wizard2 2480 automatic gamma counter (Perkin Elmer, Waltham, MA). Values were corrected for decay and normalized to tissue weight to express radioactivity concentration as percentage injected dose per gram (%ID/g). […] To investigate the tracer’s distribution within different blood compartments, after gamma counting, 100 μL of blood were spun down at 2000 g for 15 min at 4 °C. Plasma (supernatant) and cells (pellet) were gamma counted and expressed as percentage of total activity. […] Percentage of activity in mononuclear and polynuclear cells was calculated.

Structure (SMILES)	ratio between the signal in infarcted and remote myocardium [1]	SUVmax abdominal aorta ([2]; athero4mo rabbits, circulation 120 min ([^68Ga]Ga-DOTATATE, N = 32) or 180 min ([^18F]F-FDG, N = 27))	SUVmax abdominal aorta ([2]; athero7mo rabbits, N = 7)	SUVmax abdominal aorta ([2]; control rabbits, circulation 120 min ([^68Ga]Ga-DOTATATE, N = 10) or 180 min ([^18F]F-FDG, N = 11))	change of tracer accumulation (SUVmax abdominal aorta) athero7mo vs athero4mo ([2]; rabbits kept on Western Diet for 7 months, paired analysis, N = 7, p > 0.9999)	blood radioactivity contained in plasma ([3]; atherosclerotic Apoe^−/− mice)	blood radioactivity contained in plasma ([3]; control C57Bl/6 mice)	signal in atherosclerotic plaques compared to healthy (no plaque) areas of the aorta ([1]; atherosclerotic mice, N = 4)
OC[C@H]1OC(O)[C@H]([18F])[C@@H](O)[C@@H]1O (stereo partly drawn) [[^18F]F-FDG, [^18F]F-fluorodeoxyglucose]	~1	0.446	0.515	0.349				
C[C@@H](O)[C@H](NC(=O)[C@@H]1CSSC[C@H](NC(=O)[C@@H](Cc2ccccc2)NC(=O)CN2CCN(CC(=O)O)CCN(CC(=O)O)CCN(CC(=O)O)CC2)C(=O)N[C@@H](Cc2ccc(O)cc2)C(=O)N[C@H](Cc2c[nH]c3ccccc23)C(=O)N[C@@H](CCCCN)C(=O)N[C@@H]([C@@H](C)O)C(=O)N1)C(=O)O [[^68Ga]Ga-DOTATATE, metal not drawn]					did not detect a further increase in tracer accumulation			
C[C@@H](O)[C@H](NC(=O)[C@@H]1CSSC[C@H](NC(=O)[C@@H](Cc2ccccc2)NC(=O)CN2CCN(CC(=O)O)CCN(CC(=O)O)CCN(CC(=O)O)CC2)C(=O)N[C@@H](Cc2ccc(O)cc2)C(=O)N[C@H](Cc2c[nH]c3ccccc23)C(=O)N[C@@H](CCCCN)C(=O)N[C@@H]([C@@H](C)O)C(=O)N1)C(=O)O [[^64Cu]Cu-DOTATATE, metal not drawn]	approximately 2					88.7 ± 0.9%	83.4 ± 0.6%	twofold higher
